The experiment deals with HilD (Salmonella enterica, UniProt P0CL08). The experiment can be described thus: microscale thermophoresis with dye-labeled purified HilD; supported by thermal shift, DARTS and EMSA. It counts as binding. (MST reads how a fluorescent partner responds to local heating, with and without ligand.)

A word on the Kd: it is the equilibrium constant for the complex coming apart.

HilD, sequence (P0CL08 whole entry): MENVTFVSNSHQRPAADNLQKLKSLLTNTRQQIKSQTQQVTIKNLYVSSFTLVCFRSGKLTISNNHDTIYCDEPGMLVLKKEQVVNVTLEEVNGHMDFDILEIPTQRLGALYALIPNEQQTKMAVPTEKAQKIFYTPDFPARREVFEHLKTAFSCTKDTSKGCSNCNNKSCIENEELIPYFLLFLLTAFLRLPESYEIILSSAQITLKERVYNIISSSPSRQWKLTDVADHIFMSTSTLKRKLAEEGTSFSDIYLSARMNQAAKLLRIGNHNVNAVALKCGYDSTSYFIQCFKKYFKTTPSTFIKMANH

Take `COc1c2cc(c(O)c1OC)CCCC[C@@H](O)CCc1ccc(O)c-2c1` [compound 1, myricanol]: the Kd turned out to be 1380 ± 530 nM.

(Values after publication PMC7546796, “Myricanol Inhibits the Type III Secretion System of Salmonella enterica Serovar Typhimurium by Interfering With the DNA-Binding Activity of HilD” (Frontiers in Microbiology, 2020).)
